{
  "source": "patent US20220232835A1",
  "about": "“PLANT HEALTH EFFECT OF PURPUREOCILLIUM LILACINUM” (priority 2016, published 2022)",
  "key": {"[1]": {"system": "Southern Root Knot Nematode (Meloidogyne incognita)", "assay": "Drench test in tomato: nematicidal activity (percentage of gall reduction)", "type": "in vivo", "conditions": "10 mg per plant at transplanting; 3,000 Meloidogyne incognita per 100 cm^3 of soil", "protocol": "(§1) To prepare a suitable dosage form the formulated product PL251 (liquid formulation of P. lilacinum comprising BREAK-THRU® S240 and AEROSIL®) is diluted with water to the desired concentration.\n(§2) A quantity of 5,000 cm^3 of sandy loam soil, pH 6.8 per pot is mixed with 150,000 infective units (mixed population of eggs and juveniles) of the Southern Root Knot Nematode (Meloidogyne incognita). The desired concentration of Purpureocillium lilacinum strain 251 is drenched in 400 mL of solution (application A) to obtain 80% field capacity. Pots are incubated at 25° C. until transplanting of tomato seedlings (Lycopersicon lycopersicum) at 7 days after drench application A. At the day of transplanting a second drench application (application B) is carried out with 400 mL of solution.\n(§3) After transplanting of tomato seedlings several post-plant application patterns are tested using 400 mL of solution per application (Table A).\n(§4) In addition, 10 mg of the nematicide fluopyram (VELUM® PRIME, suspension concentrate SC 400) is applied at transplanting and used as a chemical reference. The non-treated control (UTC) is drenched with 400 mL of water at each application. […]\n(§5) After the specified period the nematicidal activity is determined on the basis of the percentage of gall reduction. […] Moreover the shoot biomass is also determined to assess the overall plant health status. […]"}, "[2]": {"system": "tomato seedlings (Lycopersicon lycopersicum)", "assay": "Drench test in tomato: shoot biomass (plant health)", "type": "in vivo", "conditions": "10 mg fluopyram/plant at transplanting", "protocol": "as §1, §2, §3, §4, §5"}},
  "data": [
    {"smiles": "O=C(NCCc1ncc(C(F)(F)F)cc1Cl)c1ccccc1C(F)(F)F", "note": "[fluopyram]", "values": [
      {"measurement": "nematicidal activity (percentage of gall reduction)", "setting": "[1]", "result": "excellent biocontrol activity"},
      {"measurement": "shoot fresh weight vs UTC (ANOVA, Bonferroni)", "setting": "[2]", "result": "significant improvement of shoot fresh weight"}
    ]}
  ]
}
